Laboratory results: patent publication US10246429B2, “Vinyl fluoride cyclopropyl fused thiazin-2-amine compounds as beta-secretase inhibitors and methods of use” (AMGEN INC., priority 2015, dated 2019)

Legend:
[1] = target: T1, BACE1 (Homo sapiens (Human), UniProt P56817); test: In vitro enzymatic BACE1 FRET assay; assay type: biochemical; details: read-out: IC50 IP (μM) BACE1 Enzyme
Target sequence in this assay (P56817 46-501): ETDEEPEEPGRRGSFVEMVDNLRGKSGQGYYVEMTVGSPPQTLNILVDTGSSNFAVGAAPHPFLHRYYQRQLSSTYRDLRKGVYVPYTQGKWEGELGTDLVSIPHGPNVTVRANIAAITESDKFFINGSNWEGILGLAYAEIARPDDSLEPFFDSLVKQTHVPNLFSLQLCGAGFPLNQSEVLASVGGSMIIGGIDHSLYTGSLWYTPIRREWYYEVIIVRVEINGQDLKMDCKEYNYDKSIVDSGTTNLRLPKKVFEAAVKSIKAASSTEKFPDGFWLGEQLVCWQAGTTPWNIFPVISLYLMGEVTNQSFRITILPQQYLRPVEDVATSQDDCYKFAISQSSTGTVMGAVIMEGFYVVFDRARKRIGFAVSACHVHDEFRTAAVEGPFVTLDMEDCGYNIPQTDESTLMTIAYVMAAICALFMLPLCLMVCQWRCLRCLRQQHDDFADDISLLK
Source text: (§1) In Vitro Enzymatic BACE1 and BACE2 FRET (Fluorescence Resonance Energy Transfer) Assays (Enzyme Assay Data in Table 1)

[2] = target: T1, BACE1; test: BACE1 cell assay; assay type: cell-based
Target sequence in this assay (P56817 46-501, species assumed): as the sequence (P56817 46-501) above

[3] = target: Cathepsin D (CatD) (Homo sapiens (Human), UniProt P07339); test: CatD assay; assay type: biochemical; details: read-out: IC50 IP (μM) CatD
[4] = target: BACE2 (Homo sapiens (Human), UniProt Q9Y5Z0); test: In vitro enzymatic BACE2 FRET assay; assay type: biochemical; details: read-out: IC50 IP (μM) BACE2 Enzyme
Source text: as §1

[5] = read-out: IC50 IP (μM) BACE1 Cell

Sequence of Cathepsin D (CatD) (P07339 65-412, species assumed): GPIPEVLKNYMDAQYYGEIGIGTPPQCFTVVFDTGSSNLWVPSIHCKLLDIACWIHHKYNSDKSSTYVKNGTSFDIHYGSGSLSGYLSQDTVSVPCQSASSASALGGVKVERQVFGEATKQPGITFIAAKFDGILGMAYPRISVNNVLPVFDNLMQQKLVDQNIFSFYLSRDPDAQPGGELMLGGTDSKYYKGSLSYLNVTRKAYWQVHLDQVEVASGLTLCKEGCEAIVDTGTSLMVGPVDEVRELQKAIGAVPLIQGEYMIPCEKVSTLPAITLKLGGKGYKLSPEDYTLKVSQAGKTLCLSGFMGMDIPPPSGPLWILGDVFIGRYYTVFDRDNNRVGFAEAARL
Sequence of BACE2 (Q9Y5Z0 63-518): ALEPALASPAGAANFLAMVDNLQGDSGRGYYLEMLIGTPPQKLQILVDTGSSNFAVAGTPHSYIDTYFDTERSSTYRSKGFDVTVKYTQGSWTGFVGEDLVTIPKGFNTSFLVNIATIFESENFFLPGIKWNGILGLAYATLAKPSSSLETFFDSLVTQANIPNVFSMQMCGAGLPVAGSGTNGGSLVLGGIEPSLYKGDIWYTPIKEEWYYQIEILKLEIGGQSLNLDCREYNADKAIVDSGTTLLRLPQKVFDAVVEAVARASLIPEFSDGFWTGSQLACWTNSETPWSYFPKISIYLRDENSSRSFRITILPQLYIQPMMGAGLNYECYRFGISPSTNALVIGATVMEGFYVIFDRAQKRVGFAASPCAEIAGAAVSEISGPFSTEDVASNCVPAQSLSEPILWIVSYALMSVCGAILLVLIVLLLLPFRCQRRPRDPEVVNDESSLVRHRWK

`C[C@H]1CCN1C(=O)[C@]12C[C@H]1[C@@](C)(c1cc(/C=C(\F)c3ccc(Cl)cn3)ccc1F)N=C(N)S2` (single isomer, unassigned) [Example 119] showed an IC50 [1] of 0.0034 µM, an IC50 [2, 5] of 0.00406 µM and an IC50 [3] of 42.3 µM. The IC50 [4] was 0.00752 µM.

Work on `COC[C@]12C[C@H]1[C@@](CF)(c1cc(/C=C(\F)c3ccc(Cl)cn3)ccc1F)N=C(N)S2` [Example 100, (1S,5S,6S)-5-(5-((Z)-2-(5-chloropyridin-2-yl)-2-fluorovinyl)-2-fluorophenyl)-5-(fluoromethyl)-1-(methoxymethyl)-2-thia-4-azabicyclo[4.1.0]hept-3-en-3-amine] yielded an IC50 [1] of 0.0228 µM, an IC50 [2, 5] of 0.26 µM and an IC50 [3] of 933 µM. The IC50 [4] was 0.0421 µM.

`COC[C@]12C[C@H]1[C@@](CF)(c1cc(/C=C(/F)c3ccc(Cl)cn3)ccc1F)N=C(N)S2` [Example 101, (1S,5S,6S)-5-(5-((E)-2-(5-chloropyridin-2-yl)-2-fluorovinyl)-2-fluorophenyl)-5-(fluoromethyl)-1-(methoxymethyl)-2-thia-4-azabicyclo[4.1.0]hept-3-en-3-amine] gave an IC50 [1] of 0.303 µM, an IC50 [2, 5] of 1.6 µM and an IC50 [3] of 154 µM. It also gave an IC50 [4] of 0.281 µM.

With `COc1ccc(/C(F)=C/c2ccc(F)c([C@@]3(C)N=C(N)S[C@@]4(C(=O)N5CCCC5)C[C@H]43)c2)nc1` [Example 104, ((1S,5S,6S)-3-amino-5-(2-fluoro-5-((Z)-2-fluoro-2-(5-methoxypyridin-2-yl)vinyl)phenyl)-5-methyl-2-thia-4-azabicyclo[4.1.0]hept-3-en-1-yl)(pyrrolidin-1-yl)methanone] the IC50 [1] was 0.0226 µM, the IC50 [2, 5] was 0.0221 µM and the IC50 [3] was 185 µM. The IC50 [4] was 0.144 µM.

`C[C@]1(c2cc(/C=C(\F)c3ccc(C#N)cn3)ccc2F)N=C(N)S[C@@]2(C(=O)N3CCCC3)C[C@H]21` [Example 107, 6-((Z)-2-(3-((1S,5S,6S)-3-amino-5-methyl-1-(pyrrolidine-1-carbonyl)-2-thia-4-azabicyclo[4.1.0]hept-3-en-5-yl)-4-fluorophenyl)-1-fluorovinyl)nicotinonitrile] was tested, and the IC50 [1] was 0.000673 µM, the IC50 [2, 5] was 0.00384 µM and the IC50 [3] was 396 µM.

With `CN(C)C(=O)[C@]12C[C@H]1[C@@](C)(c1cc(/C=C(\F)c3ccc(Br)cn3)ccc1F)N=C(N)S2` [Example 108, (1S,5S,6S)-3-amino-5-(5-((Z)-2-(5-bromopyridin-2-yl)-2-fluorovinyl)-2-fluorophenyl)-N,N,5-trimethyl-2-thia-4-azabicyclo[4.1.0]hept-3-ene-1-carboxamide] the IC50 [1] was 0.00199 µM, the IC50 [2, 5] was 0.00853 µM and the IC50 [3] was 519 µM. The IC50 [4] was 0.00292 µM.

Molecule `CN(C)C(=O)[C@]12C[C@H]1[C@@](C)(c1cc(/C=C(\F)c3ccc(C#CC4CC4)cn3)ccc1F)N=C(N)S2` [Example 109, (1S,5S,6S)-3-amino-5-(5-((Z)-2-(5-(cyclopropylethynyl)pyridin-2-yl)-2-fluorovinyl)-2-fluorophenyl)-N,N,5-trimethyl-2-thia-4-azabicyclo[4.1.0]hept-3-ene-1-carboxamide] has an IC50 [1] of 0.00849 µM, an IC50 [2, 5] of 0.223 µM and an IC50 [3] of 138 µM. It also gave an IC50 [4] of 0.0615 µM.

`CN(C)C(=O)[C@]12C[C@H]1[C@@](C)(c1cc(/C=C(\F)c3cnc(C#CC4CC4)cn3)ccc1F)N=C(N)S2` [Example 159, (1S,5S,6S)-3-amino-5-(5-((Z)-2-(5-(cyclopropylethynyl)pyrazin-2-yl)-2-fluorovinyl)-2-fluorophenyl)-N,N,5-trimethyl-2-thia-4-azabicyclo[4.1.0]hept-3-ene-1-carboxamide] was tested, and the IC50 [1] was 0.000856 µM, the IC50 [2] was 0.0166 µM and the IC50 [3] was 71.9 µM.

`C#C[C@H](C)Oc1cnc(/C(F)=C/c2ccc(F)c([C@@]3(C)N=C(N)S[C@@]4(C(C)=O)C[C@H]43)c2)cn1` [Example 237, 1-((1S,5S,6S)-3-amino-5-(5-((Z)-2-(5-((S)-but-3-yn-2-yloxy)pyrazin-2-yl)-2-fluorovinyl)-2-fluorophenyl)-5-methyl-2-thia-4-azabicyclo[4.1.0]hept-3-en-1-yl)ethanone] gave an IC50 [1] of 0.0032 µM, an IC50 [2, 5] of 0.0339 µM and an IC50 [4] of 0.438 µM.

In the case of `C#CCOc1cnc(/C(F)=C/c2ccc(F)c([C@@]3(C)N=C(N)S[C@@]4(C(N)=O)C[C@H]43)c2)cn1` [Example 239, (1S,5S,6S)-3-amino-5-(2-fluoro-5-((Z)-2-fluoro-2-(5-(prop-2-yn-1-yloxy)pyrazin-2-yl)vinyl)phenyl)-5-methyl-2-thia-4-azabicyclo[4.1.0]hept-3-ene-1-carboxamide], the IC50 [1] is reported as 0.0013 µM, the IC50 [2] is reported as 0.0029 µM and the IC50 [4] is reported as 0.177 µM.

In the case of `C[C@]1(c2cc(/C=C(\F)c3ccc(C#N)cn3)cnc2F)N=C(N)S[C@@]2(C(=O)N3CCC(F)(F)C3)C[C@H]21` [Example 259, 6-((Z)-2-(5-((1S,5S,6S)-3-amino-1-(3,3-difluoropyrrolidine-1-carbonyl)-5-methyl-2-thia-4-azabicyclo[4.1.0]hept-3-en-5-yl)-6-fluoropyridin-3-yl)-1-fluorovinyl)nicotinonitrile], the IC50 [1] is reported as 0.0095 µM, the IC50 [2, 5] is reported as 0.0309 µM and the IC50 [4] is reported as 0.113 µM.

With `C#CCOc1cnc(/C(F)=C/c2cnc(F)c([C@@]3(C)N=C(N)S[C@@]4(C(=O)N5CCOC[C@H]5C)C[C@H]43)c2)cn1` [Example 283, ((1S,5S,6S)-3-amino-5-(2-fluoro-5-((Z)-2-fluoro-2-(5-(prop-2-yn-1-yloxy)pyrazin-2-yl)vinyl)pyridin-3-yl)-5-methyl-2-thia-4-azabicyclo[4.1.0]hept-3-en-1-yl)((R)-3-methylmorpholino)methanone] the IC50 [1] was 0.0017 µM, the IC50 [2, 5] was 0.0044 µM and the IC50 [4] was 0.375 µM.

For `COC[C@]12C[C@H]1[C@@](C)(c1cc(/C=C(\F)c3ccc(Cl)cn3)ccc1F)N=C(N)S2` [Example 286, (1S,5S,6S)-5-(5-((Z)-2-(5-chloropyridin-2-yl)-2-fluorovinyl)-2-fluorophenyl)-1-(methoxymethyl)-5-methyl-2-thia-4-azabicyclo[4.1.0]hept-3-en-3-amine], the IC50 [1] was 0.0712 µM, the IC50 [2, 5] was 0.346 µM and the IC50 [4] was 0.069 µM.

`C#CCOc1cnc(/C(F)=C/c2ccc(F)c([C@@]3(C)N=C(N)S[C@@]4(C(=O)N5CC[C@@H](F)C5)C[C@H]43)c2)cn1` [Example 297, ((1S,5S,6S)-3-amino-5-(2-fluoro-5-((Z)-2-fluoro-2-(5-(prop-2-yn-1-yloxy)pyrazin-2-yl)vinyl)phenyl)-5-methyl-2-thia-4-azabicyclo[4.1.0]hept-3-en-1-yl)((R)-3-fluoropyrrolidin-1-yl)methanone] showed an IC50 [1] of 0.0009 µM, an IC50 [2, 5] of 0.0004 µM and an IC50 [4] of 0.041 µM.

`C#CCOc1cnc(/C(F)=C/c2ccc(F)c([C@@]3(C)N=C(N)S[C@@]4(C(=O)N5CC[C@H](F)C5)C[C@H]43)c2)cn1` [Example 303, ((1S,5S,6S)-3-amino-5-(2-fluoro-5-((Z)-2-fluoro-2-(5-(prop-2-yn-1-yloxy)pyrazin-2-yl)vinyl)phenyl)-5-methyl-2-thia-4-azabicyclo[4.1.0]hept-3-en-1-yl)((S)-3-fluoropyrrolidin-1-yl)methanone] showed an IC50 [1] of 0.0004 µM, an IC50 [2, 5] of 0.0005 µM and an IC50 [4] of 0.093 µM.

Work on `C#CCOc1cnc(/C(F)=C/c2ccc(F)c([C@@]3(C)N=C(N)S[C@@]4(C(=O)N5CCOC[C@H]5C)C[C@H]43)c2)cn1` [Example 304, ((1S,5S,6S)-3-amino-5-(2-fluoro-5-((Z)-2-fluoro-2-(5-(prop-2-yn-1-yloxy)pyrazin-2-yl)vinyl)phenyl)-5-methyl-2-thia-4-azabicyclo[4.1.0]hept-3-en-1-yl)((R)-3-methylmorpholino)methanone] yielded an IC50 [1] of 0.0006 µM, an IC50 [2, 5] of 0.0015 µM and an IC50 [4] of 0.29 µM.

Work on `COC[C@]12C[C@H]1[C@@](C)(c1cc(/C=C(\F)c3cc4c(cn3)OCCO4)ccc1F)N=C(N)S2` [Example 305, (1S,5S,6S)-5-(5-((Z)-2-(2,3-dihydro-[1,4]dioxino[2,3-c]pyridin-7-yl)-2-fluorovinyl)-2-fluorophenyl)-1-(methoxymethyl)-5-methyl-2-thia-4-azabicyclo[4.1.0]hept-3-en-3-amine] yielded an IC50 [1] of 1.76 µM, an IC50 [2, 5] of 0.793 µM and an IC50 [4] of 0.373 µM.

`C[C@]1(c2cc(/C=C(\F)c3ccc(C#N)cn3)ccc2F)N=C(N)S[C@@]2(C(=O)N3CCO[C@H]4C[C@H]43)C[C@H]21` [Example 311, 6-((Z)-2-(3-((1S,5S,6S)-3-amino-1-((1S,6R)-2-oxa-5-azabicyclo[4.1.0]heptane-5-carbonyl)-5-methyl-2-thia-4-azabicyclo[4.1.0]hept-3-en-5-yl)-4-fluorophenyl)-1-fluorovinyl)nicotinonitrile] was tested, and the IC50 [1] was 0.0018 µM, the IC50 [2, 5] was 0.0015 µM and the IC50 [4] was 0.048 µM.

In the case of `C[C@]1(c2cc(/C=C(\F)c3ccc(C#N)cn3)ccc2F)N=C(N)S[C@@]2(C(=O)N3CCCC(F)(F)C3)C[C@H]21` [Example 324, 6-((Z)-2-(3-((1S,5S,6S)-3-amino-1-(3,3-difluoropiperidine-1-carbonyl)-5-methyl-2-thia-4-azabicyclo[4.1.0]hept-3-en-5-yl)-4-fluorophenyl)-1-fluorovinyl)nicotinonitrile], the IC50 [1] is reported as 0.0011 µM, the IC50 [2, 5] is reported as 0.0031 µM and the IC50 [4] is reported as 0.019 µM.

`C[C@]1(c2cc(/C=C(\F)c3ccc(C#N)cn3)ccc2F)N=C(N)S[C@@]2(C(=O)N3CC[C@@H](O)C3)C[C@H]21` [Example 333, 6-((Z)-2-(3-((1S,5S,6S)-3-amino-1-((R)-3-hydroxypyrrolidine-1-carbonyl)-5-methyl-2-thia-4-azabicyclo[4.1.0]hept-3-en-5-yl)-4-fluorophenyl)-1-fluorovinyl)nicotinonitrile] was tested, and the IC50 [1] was 0.0008 µM, the IC50 [2, 5] was 0.0007 µM and the IC50 [4] was 0.053 µM.

Molecule `C#Cc1cnc(/C(F)=C/c2ccc(F)c([C@@]3(C)N=C(N)S[C@@]4(C(=O)N5CCOCC5)C[C@H]43)c2)cn1` [Example 350, ((1S,5S,6S)-3-amino-5-(5-((Z)-2-(5-ethynylpyrazin-2-yl)-2-fluorovinyl)-2-fluorophenyl)-5-methyl-2-thia-4-azabicyclo[4.1.0]hept-3-en-1-yl)(morpholino)methanone] has an IC50 [1] of 0.004 µM, an IC50 [2, 5] of 0.04 µM and an IC50 [4] of 0.046 µM.
